Measured values: patent US20240166693A1, “METHODS AND COMPOUNDS FOR MODULATING MYOTONIC DYSTROPY 1” (Design Therapeutics, Inc., priority 2020, published 2024)

Each molecule was assayed on Myotonic Dystrophy 1 affected patient fibroblasts (Coriell GM04602; 1600 CTG repeats) (assay: DM1 foci reduction assay (CAG10-Cy3 FISH, average foci per nucleus)). Settings: Homo sapiens, Fibroblast, 48 h, read-out: Foci Reduction in Fibroblast EC50, 48 h (nM).
Assay type: cell-based
How it was run: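 Read-out is mean nuclear foci per well from CAG10-Cy3 FISH (5 nM probe, overnight 37 °C) with DAPI nuclei, 4 fields per well at 20×. Compounds ran 48 h in 8-point, 3-fold series topping at 3 μM on 1600-CTG GM04602 fibroblasts, alongside GM07492 wild-type cells.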
With `CCN(CC)CCCC[C@H](NC(=O)COCCNC(=O)c1cnn(-c2ccc(C(C)(C)C)cc2)c1)C(=O)N[C@@H](CO)C(=O)NCCOCCOCCOCCOCCOCCNC(=O)CCNC(=O)c1nc(NC(=O)c2cc(NC(=O)CCNC(=O)c3nc(NC(=O)CCCNC(=O)c4cc(NC(=O)c5nc(NC(=O)CCNC(=O)c6cc(NC(=O)c7nccn7C)cn6C)cn5C)cn4C)cn3C)cn2C)cn1C` [Compound 150] the EC50 was > 500 nM. `CCN(CC)CCCC[C@H](NC(=O)[C@H](CC(C)C)NC(=O)[C@H](C)NC(=O)[C@H](Cc1ccccc1)NC(=O)c1ccc(C(C)(C)C)cc1)C(=O)N[C@@H](CO)C(=O)NCCOCCOCCOCCOCCOCCNC(=O)c1cc(NC(=O)c2nc(NC(=O)c3cc(NC(=O)[C@@H](N)CCNC(=O)c4nc(NC(=O)c5cc(NC(=O)c6cc(NC(=O)c7nccn7C)cn6C)cn5C)cn4C)cn3C)cn2C)cn1C` [Compound 57] was tested, and the EC50 was > 500 nM. With `CCN(CC)CCCC[C@H](NC(=O)[C@H](CC(C)C)NC(=O)[C@H](C)NC(=O)[C@H](Cc1ccccc1)NC(=O)c1ccc(C(C)(C)C)cc1)C(=O)N[C@@H](CO)C(=O)NCCOCCOCCOCCOCCOCCNC(=O)c1nc(NC(=O)CCNC(=O)c2cc(NC(=O)c3nc(NC(=O)CCNC(=O)c4cc(NC(=O)c5nc(NC(=O)CCNC(=O)c6cccn6C)cn5C)cn4C)cn3C)cn2C)cn1C` [Compound 10] the EC50 was > 500 nM. `CCN(CC)CCCC[C@H](NC(=O)[C@H](CC(C)C)NC(=O)[C@H](C)NC(=O)[C@H](Cc1ccccc1)NC(=O)c1ccc(C(C)(C)C)cc1)C(=O)N[C@@H](CO)C(=O)NCCOCCOCCOCCOCCN1CCN(C(=O)CCNC(=O)c2nc(NC(=O)c3cc(NC(=O)CCNC(=O)c4nc(NC(=O)CCCNC(=O)c5cc(NC(=O)c6nc(NC(=O)CCNC(=O)c7cc(NC(=O)c8nccn8C)cn7C)cn6C)cn5C)cn4C)cn3C)cn2C)CC1` [Compound 187] was tested, and the EC50 was 100 to 500 nM. For `CCN(CC)CCCC[C@H](NC(=O)[C@H](CC(C)C)NC(=O)[C@H](C)NC(=O)[C@H](Cc1ccccc1)NC(=O)c1ccc(C(C)(C)C)cc1)C(=O)N[C@@H](CO)C(=O)NCCOCCOCCOCCOCCOCCNC(=O)c1cc(NC(=O)c2nc(NC(=O)[C@H](N)CCNC(=O)c3cc(NC(=O)c4nc(NC(=O)CCNC(=O)c5cc(NC(=O)c6nccn6C)cn5C)cn4C)cn3C)cn2C)cn1C` [Compound 111], the EC50 was > 500 nM. With `CCN(CC)CCCC[C@H](NC(=O)[C@H](CC(C)C)NC(=O)[C@H](C)NC(=O)[C@H](Cc1ccccc1)NC(=O)c1ccc(C(C)(C)C)cc1)C(=O)N[C@@H](CO)C(=O)NCCOCCOCCOCCOCCOCCNC(=O)c1cc(NC(=O)c2nc(NC(=O)c3cc(NC(=O)[C@H](CCNC(=O)c4nc(NC(=O)CCNC(=O)c5cc(NC(=O)c6nccn6C)cn5C)cn4C)NC(C)=O)cn3C)cn2C)cn1C` [Compound 117] the EC50 was > 500 nM. In the case of `CCN(CC)CCCC[C@H](NC(=O)COCCOCCNC(=O)c1ccc(C(C)(C)C)cc1)C(=O)N[C@@H](CO)C(=O)NCCOCCOCCNC(=O)CCNC(=O)c1nc(NC(=O)c2cc(NC(=O)CCNC(=O)c3nc(NC(=O)CCCNC(=O)c4cc(NC(=O)c5nc(NC(=O)CCNC(=O)c6cc(NC(=O)c7nccn7C)cn6C)cn5C)cn4C)cn3C)cn2C)cn1C` [Compound 81], the EC50 is reported as < 100 nM. For `CCN(CC)CCCC[C@H](NC(=O)[C@H](CC(C)C)NC(=O)[C@H](C)NC(=O)[C@H](Cc1ccccc1)NC(=O)c1ccc(C(C)(C)C)cc1)C(=O)N[C@@H](CO)C(=O)NCCOCCOCCOCCOCCOCCNC(=O)c1cc(NC(=O)c2cc(NC(=O)c3nc(NC(=O)c4cc(NC(=O)[C@@H](N)CCNC(=O)c5nc(NC(=O)CCNC(=O)c6cc(NC(=O)c7nccn7C)cn6C)cn5C)cn4C)cn3C)cn2C)cn1C` [Compound 56], the EC50 was > 500 nM. With `CCN(CC)CCCC[C@H](NC(=O)[C@H](CC(C)C)NC(=O)[C@H](C)NC(=O)[C@H](Cc1ccccc1)NC(=O)c1ccc(C(C)(C)C)cc1)C(=O)N[C@@H](CO)C(=O)NCCOCCOCCOCCOCCOCCNC(=O)CCNC(=O)c1cc(NC(=O)c2nc(NC(=O)CCNC(=O)c3cc(NC(=O)c4nc(NC(=O)CCCNC(=O)c5cc(NC(=O)c6nc(NC(=O)CCNC(=O)c7cc(NC(=O)c8nccn8C)cn7C)cn6C)cn5C)cn4C)cn3C)cn2C)cn1C` [Compound 135] the EC50 was > 500 nM. Work on `CCN(CC)CCCC[C@H](NC(=O)COCCOCCOCCNC(=O)c1ccc(C(C)(C)C)cc1)C(=O)N[C@@H](CO)C(=O)NCCOCCOCCOCCOCCOCCNC(=O)CCNC(=O)c1nc(NC(=O)c2cc(NC(=O)CCNC(=O)c3nc(NC(=O)CCCNC(=O)c4cc(NC(=O)c5nc(NC(=O)CCNC(=O)c6cc(NC(=O)c7nccn7C)cn6C)cn5C)cn4C)cn3C)cn2C)cn1C` [Compound 140] yielded an EC50 of 100 to 500 nM. `CCN(CC)CCCC[C@H](NC(=O)[C@H](CC(C)C)NC(=O)[C@H](C)NC(=O)[C@H](Cc1ccccc1)NC(=O)c1ccc(C(C)(C)C)cc1)C(=O)N[C@@H](CO)C(=O)NCCOCCOCCOCCOCCOCCNC(=O)CCNC(=O)c1nc(NC(=O)c2cc(NC(=O)CCNC(=O)c3nc(NC(=O)[C@H](N)CCNC(=O)c4cc(NC(=O)c5nc(NC(=O)CCNC(=O)c6cc(NC(=O)c7nccn7C)cn6C)cn5C)cn4C)cn3C)cn2C)cn1C` [Compound 101] showed an EC50 of 100 to 500 nM. `CCN(CC)CCCC[C@H](NC(=O)N1CC(c2cnc(CNC(=O)c3ccc(C(C)(C)C)cc3)[nH]2)C1)C(=O)N[C@@H](CO)C(=O)NCCOCCOCCOCCOCCOCCNC(=O)CCNC(=O)c1nc(NC(=O)c2cc(NC(=O)CCNC(=O)c3nc(NC(=O)CCCNC(=O)c4cc(NC(=O)c5nc(NC(=O)CCNC(=O)c6cc(NC(=O)c7nccn7C)cn6C)cn5C)cn4C)cn3C)cn2C)cn1C` [Compound 155] was tested, and the EC50 was 100 to 500 nM. Molecule `CCN(CC)CCCC[C@H](NC(=O)Cc1nc2cc(CC(=O)Nc3ccc(C(C)(C)C)cc3)cnc2[nH]1)C(=O)N[C@@H](CO)C(=O)NCCOCCOCCOCCOCCOCCNC(=O)CCNC(=O)c1nc(NC(=O)c2cc(NC(=O)CCNC(=O)c3nc(NC(=O)CCCNC(=O)c4cc(NC(=O)c5nc(NC(=O)CCNC(=O)c6cc(NC(=O)c7nccn7C)cn6C)cn5C)cn4C)cn3C)cn2C)cn1C` [Compound 152] has an EC50 of 100 to 500 nM. For `CC(C)C[C@H](NC(=O)[C@H](C)NC(=O)[C@H](Cc1ccccc1)NC(=O)c1ccc(C(C)(C)C)cc1)C(=O)N[C@@H](CCCCN(C)C1CC2CCC1C2)C(=O)N[C@@H](CO)C(=O)NCCOCCOCCOCCOCCOCCNC(=O)c1cc(NC(=O)c2cc(NC(=O)c3nc(NC(=O)c4cc(NC(=O)[C@@H](N)CCNC(=O)c5nc(NC(=O)CCNC(=O)c6cc(NC(=O)c7nccn7C)cn6C)cn5C)cn4C)cn3C)cn2C)cn1C` (some centres unmarked) [Compound 84], the EC50 was > 500 nM. In the case of `CCN(CC)CCCC[C@H](NC(=O)[C@H](CC(C)C)NC(=O)[C@H](C)NC(=O)[C@H](Cc1ccccc1)NC(=O)c1ccc(C(C)(C)C)cc1)C(=O)N[C@@H](CO)C(=O)NCCOCCOCCOCCOCCOCCNC(=O)c1cc(NC(=O)c2nc(NC(=O)CCNC(=O)c3cc(NC(=O)c4nc(NC(=O)CCCNC(=O)c5cc(NC(=O)c6nc(NC(=O)CCNC(=O)c7cc(NC(=O)c8nccn8C)cn7C)cn6C)cn5C)cn4C)cn3C)cn2C)cn1C` [Compound 130], the EC50 is reported as < 100 nM.

Same assay, conditions: Homo sapiens, Fibroblast; DM1 fibroblasts, 48 h treatment, 8-point dose response, 3 μM top dose; read-out: Foci Reduction in Fibroblast EC50, 48 h
Molecule `CN(C)[C@@H]1CN(C2CCc3cccc(F)c32)C[C@H]1c1ccc(N2CCN(S(=O)(=O)CCOCCOCCOCCOCCOCCNC(=O)CCNC(=O)c3nc(NC(=O)c4cc(NC(=O)CCNC(=O)c5nc(NC(=O)CCCNC(=O)c6cc(NC(=O)c7nc(NC(=O)CCNC(=O)c8cc(NC(=O)c9nccn9C)cn8C)cn7C)cn6C)cn5C)cn4C)cn3C)CC2)cc1` (some centres unmarked) [Compound 175] has an EC50 of 100 to 500 nM. `Cc1nc(CCC(=O)NCCOCCOCCOCCOCCOCCNC(=O)CCNC(=O)c2nc(NC(=O)c3cc(NC(=O)CCNC(=O)c4nc(NC(=O)CCCNC(=O)c5cc(NC(=O)c6nc(NC(=O)CCNC(=O)c7cc(NC(=O)c8nccn8C)cn7C)cn6C)cn5C)cn4C)cn3C)cn2C)ccc1-c1cnc(NCc2c(F)ccc3c2CCO3)n2cnnc12` [Compound 62] was tested, and the EC50 was > 500 nM. In the case of `CCN(c1cc(-c2ccc(CN3CCN(CCOCCOCCNC(=O)CCNC(=O)c4nc(NC(=O)c5cc(NC(=O)CCNC(=O)c6nc(NC(=O)CCCNC(=O)c7cc(NC(=O)c8nc(NC(=O)CCNC(=O)c9cc(NC(=O)c%10nccn%10C)cn9C)cn8C)cn7C)cn6C)cn5C)cn4C)CC3)cc2)cc(C(=O)NCc2c(C)cc(C)[nH]c2=O)c1C)C1CCOCC1` [Compound 165], the EC50 is reported as > 500 nM. `COc1c(OCCOCCOCCOCCOCCOCCNC(=O)CCNC(=O)c2nc(NC(=O)c3cc(NC(=O)CCNC(=O)c4nc(NC(=O)CCCNC(=O)c5cc(NC(=O)c6nc(NC(=O)CCNC(=O)c7cc(NC(=O)c8nccn8C)cn7C)cn6C)cn5C)cn4C)cn3C)cn2C)cccc1C(=O)N1CCN(C(=O)COc2cc(C)c(N)c(C)c2)CC1` [Compound 92] was tested, and the EC50 was > 500 nM. In the case of `Cn1cc(NC(=O)c2nc(NC(=O)CCNC(=O)c3cc(NC(=O)c4nccn4C)cn3C)cn2C)cc1C(=O)NCCCC(=O)Nc1cn(C)c(C(=O)NCCC(=O)Nc2cc(C(=O)Nc3cn(C)c(C(=O)NCCC(=O)NCCOCCOCCOCCOCCOCCOCCn4cc(CC(=O)Nc5ccc(C(=O)Nc6ccccc6N)cc5)nn4)n3)n(C)c2)n1` [Compound 124], the EC50 is reported as > 500 nM. `Cn1cc(CCn2c(CNCCOCCOCCNC(=O)CCNC(=O)c3nc(NC(=O)c4cc(NC(=O)CCNC(=O)c5nc(NC(=O)CCCNC(=O)c6cc(NC(=O)c7nc(NC(=O)CCNC(=O)c8cc(NC(=O)c9nccn9C)cn8C)cn7C)cn6C)cn5C)cn4C)cn3C)nc(-c3cnn(C)c3)c2-c2ccc(C#N)cc2)cn1` [Compound 171] was tested, and the EC50 was > 500 nM. `CN(C)[C@H]1CN(C2CCc3cccc(F)c32)C[C@@H]1c1ccc(N2CCN(S(=O)(=O)CCOCCOCCOCCOCCOCCNC(=O)CCNC(=O)c3nc(NC(=O)c4cc(NC(=O)CCNC(=O)c5nc(NC(=O)CCCNC(=O)c6cc(NC(=O)c7nc(NC(=O)CCNC(=O)c8cc(NC(=O)c9nccn9C)cn8C)cn7C)cn6C)cn5C)cn4C)cn3C)CC2)cc1` (some centres unmarked) [Compound 147] was tested, and the EC50 was > 500 nM. In the case of `CC(=O)c1cc(-c2ccccc2S(C)(=O)=O)c2cc(OCCOCCOCCOCCOCCOCCOCCOCCOCCOCCOCCNC(=O)CCNC(=O)c3nc(NC(=O)c4cc(NC(=O)CCNC(=O)c5nc(NC(=O)CCCNC(=O)c6cc(NC(=O)c7nc(NC(=O)CCNC(=O)c8cc(NC(=O)c9nccn9C)cn8C)cn7C)cn6C)cn5C)cn4C)cn3C)ccn12` [Compound 170], the EC50 is reported as > 500 nM.
